Here are results for one compound from patent publication US20220168310A1, “INHIBITION OF ADENOVIRUS WITH FILOCICLOVIR” (Microbiotix, Inc., priority 2019, published 2022).

The subject of one data set is adenovirus 6 (AdV6). Put plainly: CPE reduction assay, adenovirus 6. Type of data set: cell-based, human adenovirus. How it is done: (§1) Similar experiments were carried out with filociclovir against adenovirus 6, adenovirus 7, and adenovirus 8.
In another data set the test system is adenovirus 8 (AdV8). Description: CPE reduction assay, adenovirus 8. Type of data set: cell-based, human adenovirus. Conditions: unidentified adenovirus, unit not given in Table 2 (Table 1 in μM). On the procedure: as §1
Another data set relates to AdV5. Put plainly: Immunofluorescence assay (DBP and hexon staining), AdV5-infected A549 cells. Type of data set: cell-based, human adenovirus. Conditions: 27 hours post-infection. On the procedure:
(§2) Human A549 cells on glass coverslips in 6-well plates were infected at an MOI of 5 PFU/cell with either AdV5 or AdV6 or were mock-infected. After 1 hour, filociclovir was added to a final concentration of 0, 4, 10, or 40 μM. At 27 hours post-infection, the A549 cells were fixed in paraformaldehyde (3.7% in PBS) and permeabilized with methanol. Cells were stained for the Adenovirus DNA-binding protein and adenovirus hexon. DBP staining will be […] and uniform during early AdV infection (prior to AdV DNA replication). DBP associates with replication centers as the infection progresses. The replication centers are initially small “dots” (each dot results from one incoming AdV genome). The replication centers will expand and “multiply” as DNA replication takes place. The nuclei become enlarged and misshapen as infection progresses. AdV hexon, the most abundant component of the AdV viral capsid, is not expressed until after DNA replication is taking place and is therefore considered to be a “late” AdV protein.

The next data set deals with AdV6. Description: Immunofluorescence assay (DBP and hexon staining), AdV6-infected A549 cells. Type of data set: cell-based, human adenovirus. Conditions: 27 hours post-infection. On the procedure: as §2
A short description of data set [1]: Pharmacokinetics of filociclovir in immunosuppressed hamsters. Conditions: 6 hours after administration. It is filed as in vivo, Syrian hamsters. On the procedure:
In order to test the pharmacokinetics of filociclovir, we use a Syrian male hamster model of adenovirus infection. Syrian hamsters were given either an oral (p.o. 50 mg/kg) or intravenous (i.v. 10 mg/kg) dose of filociclovir. […] For i.v. administration, filociclovir was dissolved in DMSO (Sigma D2650) and then diluted with water to a final concentration of 5 mg/ml for filociclovir and 75% DMSO. The dosing solutions were prepared one day before use and stored at 4° C. Male Syrian hamsters were purchased from Envigo (Hackensack, N.J.) at ˜100 g body weight. […] The animals received three injections of CP before the administration of filociclovir. Two groups of animals (12 hamsters/group) were used for the two routes of administrations. In addition, three untreated animals (the same three hamsters for both routes) served as mock controls. The p.o. and i.v. experiments were performed on two consecutive days. As the hamsters weighed approximately 100 g, (+/−10%), they were administered 1 ml and 0.2 ml for the p.o. and i.v. routes, respectively, to achieve the desired dose. For both routes, 3 hamsters were sacrificed at 0.5, 1, 3, and 6 hr post dosing. […]

A further data set deals with Human AdV6. Put plainly: High dose filociclovir against intravenously administered AdV6 in immunosuppressed hamsters (Example 5). Particulars: for mortality: p=0.0124 vs AdV6+Vehicle; for virus burden in the liver: TCID50. How it is done:
Four dose levels were tested: 10, 30, 60, and 100 mg/kg p.o. q.d. The highest dose was determined based on rat toxicology data.
All hamsters were immunosuppressed using cyclophosphamide (CP). CP was administered intraperitoneally at a dose of 140 mg/kg, and then twice weekly at a dose of 100 mg/kg.
Filociclovir, in powdered form, was suspended in 0.4% carboxymethyl cellulose (Sigma C5678) at 1, 3, 6, and 10 mg/ml and sonicated to visual homogeneity and aliquots stored at 4° C. Aliquots were allowed to equilibrate to room temperature before dosing. Hamsters weighing approximately 100 g were dosed with a 1 ml volume of the appropriate suspension for the 10, 30, 60, and 100 mg/kg dose levels. References to “vehicle” refers to 0.4% carboxymethyl cellulose
The hamsters were divided into 8 groups, 15 hamsters/group, (with the exception of Group 2, which had only 5 hamsters; see Table 3), immunosuppressed, and then injected i.v. with vehicle (Groups 1-2) or 2×10^10 PFU/kg of AdV6 (Groups […]). Groups 1 and 3 received drug vehicle (p.o. q.d.), Group 4 received 10 mg/kg filociclovir (p.o. q.d.), Group 5 received 30 mg/kg filociclovir (p.o. q.d.), Group 6 received 60 mg/kg filociclovir (p.o. q.d.), Groups 2 and 7 received 100 mg/kg filociclovir (p.o. q.d.), and Group 8 received cidofovir (20 mg/kg, 3 times weekly). For all groups, drug administration started 1 day before challenge, and continued according to the schedule above for the duration of the study.
The body weights and any signs of morbidity of the animals were recorded daily. At 5 days post challenge, 5 hamsters (designated at the start of the experiment) from each group (with the exception of Group 2) were sacrificed, and gross pathological observation was performed. Serum and liver samples were collected and the virus burden in liver was determined by a TCID50 assay, and the serum was analyzed for transaminase levels. The remaining 10 hamsters were sacrificed at 14 days post challenge. Hamsters that became visually moribund before Day 14 were sacrificed as needed. In addition to the hamsters observed to be moribund, all hamsters that lost more than 20% of their original body weight were also sacrificed. For the hamsters sacrificed at the conclusion of the experiment and those sacrificed as moribund, serum and liver tissues were collected and banked for possible determination of serum transaminase levels and virus burden in the liver. Liver tissue was preserved in formalin for possible histopathological examination.

The test system of another data set is adenovirus 3 (AdV3). Put plainly: Efficacy against adenovirus 3 (data not shown).
A further data set deals with adenovirus 4 (AdV4). Description: Efficacy against adenovirus 4 (data not shown).

By EC50 is commonly meant the concentration needed to bring the measured effect to its halfway point. A lower EC50 goes with a more potent agent.

With `Nc1nc2c(ncn2/C=C2/CC2(CO)CO)c(=O)[nH]1` [FCV, 2-amino-9-{(Z)-[2,2-bis(hydroxymethyl)cyclopropylidene]methyl}-3,9-dihydro-6H-purin-6-one], the CC50/EC50 with adenovirus 6 (AdV6) was determined as 27. The 50% effective concentration (EC50) with adenovirus 6 (AdV6) (Human mastadenovirus C, unit not given in Table 2 (Table 1 in μM)) is 3.67 µM; with adenovirus 8 (AdV8), 2.45 µM. The hexon-positive cells entry in the data set on AdV5 (AdV5, 4 μM) is given as “Some hexon-positive cells”; in the data set on AdV5 (AdV5, 10 μM), “extremely few hexon-positive cells”; in the data set on AdV5 (AdV5, 40 μM), “No hexon-positive cells”; with AdV6 (AdV6, 4 μM) it was “Some hexon-positive cells”; with AdV6 (AdV6, 10 μM), “extremely few hexon-positive cells”; in the data set on AdV6 (AdV6, 40 μM) it was “No hexon-positive cells”. The detectability after administration entry in data set [1] (i.v. 10 mg/kg) and in data set [1] (p.o. 50 mg/kg) was “still detectable” in each case. Moreover, the body weight loss result with Human AdV6 (10 mg/kg p.o. q.d.) and in the data set with Human AdV6 (30 mg/kg p.o. q.d.) was “reversed” each time. The mortality result with Human AdV6 (10 mg/kg p.o. q.d.) and in the data set on Human AdV6 (30 mg/kg p.o. q.d.) was “prevented mortality” each time. Besides, the “virus burden in the liver” value in the data set on Human AdV6 (10 mg/kg, 5 days post challenge) is recorded as “one animal in the AdV6+10 mg/kg filociclovir group with a very low liver virus burden”; in the data set with Human AdV6 (30 mg/kg, 5 days post challenge), “nondetectable level”. Also, the “toxicity for AdV6-infected hamsters” value with Human AdV6 (60 mg/kg p.o. q.d.) and in the data set with Human AdV6 (100 mg/kg p.o. q.d.) was “toxic” in each case. Also, the “animals with elevated serum transaminase levels (ALT)” value in the data set with Human AdV6 (5 days post challenge, filociclovir p.o. q.d. groups, CDV 20 mg/kg 3 times weekly) is “none”. Besides, the “kidney pathology at day 5 sacrifice” value in the data set on Human AdV6 (AdV6+60 mg/kg) and with Human AdV6 (AdV6+100 mg/kg) was “extensive kidney pathology” throughout. Moreover, the “treat or prevent infection” value with adenovirus 3 (AdV3) and with adenovirus 4 (AdV4) was “effective” throughout.
